Assay results from patent US8974827B2, “Nanoparticles comprising a non-ionizable cellulosic polymer and an amphiphilic non-ionizable block copolymer” (Bend Research, Inc., priority 2007, dated 2015).
In brackets after ≈: the same amount, converted by molar mass.

What was measured:
[1] = for Observations: pH 6.5
Description: An appropriate PBS solution is an aqueous solution comprising 20 mM sodium phosphate (Na2HPO4), 47 mM potassium phosphate (KH2PO4), 87 mM NaCl, and 0.2 mM KCl, adjusted to pH 6.5 with NaOH. A test to determine whether the cellulosic polymer is insoluble may be performed as follows. The cellulosic polymer is initially present in bulk powder form with average particle sizes of greater than about 1 micron. The polymer alone is administered at a concentration of 0.2 mg/mL to the PBS solution and stirred for approximately 1 hour at room temperature. Next, a nylon 0.45 μm filter is weighed, and the solution is filtered. The filter is dried overnight at 40° C., and weighed the following morning.
First, 0.2 mg/mL of the polymer was added to a PBS solution consisting of 20 mM Na2HPO4, 47 mM KH2PO4, 87 mM NaCl, and 0.2 mM KCl, adjusted to pH 6.5 with NaOH. The polymer was stirred in the PBS solution for approximately 1 hour at room temperature. Next, the polymer solution was filtered through a nylon 0.45 μm filter that was weighed dry prior to filtration. The filter was dried overnight at 40° C., and weighed the following morning. The amount of soluble polymer was calculated from the amount of polymer added to form the polymer solution minus the amount of polymer remaining on the filter.

[2] = Solubility in model fasted duodenal (MFD) solution; format: physicochemical; settings: fassgf or other biorelevant, PBS containing 7.3 mM sodium taurocholic acid and 1.4 mM POPC
[3] = Solubility of drug in water; format: physicochemical
Description: The utility of the invention increases as the water solubility of the drug decreases. […] The Tg of non-crystalline Drug 1 was determined by DSC analysis to be 55° C., while the Tm of crystalline Drug 1 was 170° C.

[4] = Free drug analysis by centrifuge filtration (30,000-dalton cutoff) and HPLC; format: physicochemical; settings: 30,000-dalton cutoff centrifuge filter, HPLC
Description: The nanoparticle suspension was centrifuged for 3 minutes at 13,000 rpm using a 30,000-dalton molecular-weight cutoff centrifuge tube filter, and 50 μL of the supernatant was added to 250 μL acetonitrile. The sample was assayed by HPLC.

Log P of drug = format: physicochemical; settings: octanol/water
Description: The first property of hydrophobic drugs is that they are extremely hydrophobic. Log P, defined as the base 10 logarithm of the ratio of the drug solubility in octanol to the drug solubility in water, is a widely accepted measure of hydrophobicity. By “extremely hydrophobic” is meant that the Log P value of the drug is at least 4.0, preferably at least 4.5, and most preferably at least 5.0. Log P may be measured experimentally or calculated using methods known in the art. When using a calculated value for Log P, the highest value calculated using any generally accepted method for calculating Log P is used. Calculated Log P values are often referred to by the calculation method, such as Clog P, Alog P, and Mlog P. The Log P may also be estimated using fragmentation methods, such as Crippen's fragmentation method (27 J. Chem. Inf. Comput. Sci. 21 (1987)); Viswanadhan's fragmentation method (29 J. Chem. Inf. Comput. Sci. 163 (1989)); or Broto's fragmentation method (19 Eur. J. Med. Chem.-Chim. Theor. 71 (1984).

| Amount Soluble at pH 6.5 [1] [mg/mL] | Observations [1] | solubility [3] [µg/mL] | Compound | other results |
| --- | --- | --- | --- | --- |
| <0.001 | Fine particle suspension | – | ethylcellulose | – |
| – | – | – | Cc1ccc(-c2cc(C(F)(F)F)nn2-c2ccc(S(N)(=O)=O)cc2)cc1 [Drug 3, celecoxib] | solubility [2]: ~40 µg/mL (≈ 105 µM) |
| – | – | < 1 | CC[C@@H]1C[C@H](N(Cc2cc(C(F)(F)F)cc(C(F)(F)F)c2)C(C)=O)c2cc(C(F)(F)F)ccc2N1C(=O)OC(C)C [Drug 2, [2R,4S] 4-[acetyl-(3,5-bis-trifluoromethyl-benzyl)-amino]-2-ethyl-6-trifluoromethyl-3,4-dihydro-2H-quinoline-1-carboxylic acid isopropyl ester] | – |
| – | Stabilizer dissolved | – | Polyethylene glycol 8000 [PEG 8000] | Soluble at pH 6.5 [1]: 0.2 mg/mL |
| – | – | ~10 (≈ 31.8 µM) | Cc1onc(-c2ccccc2)c1-c1ccc(S(N)(=O)=O)cc1 [Drug 1, 4-(5-methyl-3-phenyl-4-isoxazolyl)benzenesulfonamide] | Free Drug [4]: 11 µg/mL; logP (Log P of drug): ~3 |
| 0.02 | Fine particle suspension | – | poly(DL-lactide-co-glycolide 50:50) [PLGA] | – |
